Patent publication US20250280816A1, “INSECT TRAP” (Scotts Canada Ltd., priority 2017, published 2025)

Experiments:
Assay type in all cases: in vivo, Cimex lectularius
bed bugs [1] = test: large Plexiglass arena bioassay with baited shelters; settings: adult males
From the text: The large two-chamber Plexiglass arena (180 cm long×12 cm high×13 cm wide) was designed with a central divider (180 cm long×5.5 cm high) to accommodate two pieces of wood (162 cm long×3.8 cm wide×0.8 cm high), each piece for testing the response of a single bed bug to a pheromone-baited shelter or a control shelter (see insert in FIG. 19) which were randomly assigned to either end of the wood. […] For each replicate, a single bed bug was placed in the center of the wood piece just prior to the end of the 14-h photophase, and its position was scored the next morning after the onset of the photophase.
Experiments 68-75 also investigated the effect of the volatile pheromone components (VPCs) (E)-2-hexenal, (E)-2-octenal, dimethyl disulfide, dimethyl trisulfide and 2-hexanone, and the effect of the less-volatile pheromone component histamine (H), on attraction and arrestment of bed bugs. Treatment stimuli consisted of filter paper (4×2.2 cm) impregnated with H (2,000 μg) and covered with a piece of corrugated cardboard shelter (3×2.2 cm), and of VPCs formulated at a high dose (500 μg; Experiments 68-74) or a medium dose (50 μg; Exp. 75) in mineral oil (0.5 mL) and pipetted into the inverted lid of a 20-ml scintillation vial resting on top of the shelter (FIG. 19). Control stimuli were of identical design but the filter paper contained no H, and the mineral oil contained no VPCs.

[2] = system: bed bugs (C. lectularius); test: three-dish, dual-choice olfactometer bioassay; settings: Exp. 23-37; nymphs; amounts in micrograms in parentheses of the bait
From the text: Bioassays were run in dual-choice olfactometers and in large Plexiglass arenas (FIG. 19). Dual-choice olfactometers consisted of two lateral Pyrex® glass Petri dishes, connected to a central dish (all dishes 3×9 cm inner diameter) via a Pyrex® glass tube (2.5 cm long×2 cm inner diameter). The dishes in this olfactometer mimic the natural still-air shelters in which bed bugs spend the day. Prior to the start of bioassays, a disc of paper toweling (9 cm diameter) was placed into each dish and a strip of paper toweling (2.4×0.6 cm) was inserted into the connecting glass tubing to provide traction for walking bed bugs. In addition, a piece of filter paper (2×3 cm; Whatman) was placed into each lateral dish and covered with a piece of cardboard (2×2 cm) as a refuge for bioassay insects.
Treatment and control stimuli were randomly assigned to each lateral dish. Olfactometers were enclosed in opaque plastic bins to prevent light from entering and affecting the insects' responses. For each replicate, a single 3rd, 4th, or 5th instar C. lectularius nymph was released into the central chamber of the olfactometer, which was then covered with a glass plate to prevent escape. The single bed bug in each olfactometer was then allowed to explore all chambers. Each insect was released into an olfactometer at the end of the 14-h photophase allowing it to explore the chambers during 10 h of darkness, and to come to rest in one of the shelters during 10 h of light. After this 20-h period, the insect's position within the olfactometer was recorded. Any insects not found in a lateral chamber were recorded as non-responders. All experimental replicates were run at 24±2° C. and 30-60% RH. Olfactometers were washed with Sparkleen detergent (Fisher Scientific Co, Pittsburgh, PA, USA), and were oven-dried (Precision, Winchester, VA, USA) between each bioassay.

bed bugs [3] = test: pheromone-baited shelter traps in a heavily infested residential apartment (Room 106); settings: Exp. 76-79, 24-h periods; for Mean ± SE number insects in baited shelter: VPCs total 500 μg, histamine 2,000 μg, nymphal and adult bed bugs; for Mean (±SE) number insects in control shelter: unbaited control shelter paired with the baited shelter
From the text: To determine whether bed bugs responded to synthetic pheromone lures not only in large arena laboratory bioassays but also in infested premises (residential apartments), we placed pheromone-baited shelter traps (see FIG. 19) in apartments with known or suspected bed bug infestations. […] Based on 24-hour trapping results in multiple apartments, we selected a single, heavily infested apartment (hereafter referred to as Room 106) for further testing of synthetic bed bug pheromone lures.
Replicates (n=15-20) of each experiment consisted of paired shelters placed against a wall or furniture, with approximately 30-cm spacing between paired shelters and >1 m spacing between shelter pairs. For each shelter pair within each experiment, pheromone and control treatments were randomly assigned, and placement of replicates was alternated between the two experiments of Set 1 and Set 2. Because not more than 10 shelter pairs could be accommodated in Room 106 at any time, experimental data were collected over several consecutive 24-h periods. Every morning at 9:00, shelters were collected from Room 106 and immediately placed into separate labelled zipper lock bags which were then put on dry ice to kill the bed bugs that had entered a shelter. Bed bugs in each shelter were later counted in the laboratory under a microscope, noting their developmental stage (1st, 2nd, 3rd, or 4th instar, adult), sex (male, female), and evidence (or not) for blood feeding prior to entry into a shelter. Immediately following the removal of bed bug shelters from Room 106 each morning, new pre-prepared shelters were pheromone-baited (treatment) or not (control) and their position within shelter pairs randomly assigned (see above), again alternating placement of shelter pairs between Experiments 76 and 77 (Set 1) and between Experiments 78 and 79 (Set 2).

Q: `NCCc1c[nH]cn1` [H, histamine] was tested. Which “No. insects in shelter 1” value (bed bugs [1]; Exp. 68-71, 73, baited shelter 1 vs unbaited shelter 2, VPCs 500 μg, histamine 2,000 μg) did it give?
A: 12

Q: What about the “No. insects not responding” value (bed bugs [1]; Exp. 68-71, 73, baited shelter 1 vs unbaited shelter 2) of the same compound?
A: 5

Q: And the “No. insects in shelter 2” value (bed bugs [1]; Exp. 68-71, 73, unbaited shelter 2 paired with the baited shelter 1)?
A: 1

Q: What about the “No. insects in shelter 2” value (bed bugs [1]; Exp. 68-71, 73, unbaited shelter 2 paired with the baited shelter 1, listed as histamine) of the same compound?
A: one

Q: What about the “No. insects in shelter 2” value (bed bugs [1]; Exp. 72, shelter 2 H (2,000 μg) vs shelter 1 VPC (500 μg)) of the same compound?
A: 14

Q: What about the “No. insects in shelter 2” value (bed bugs [1]; Exp. 74, shelter 2 H (2,000 μg) vs shelter 1 VPC (500 μg) + H) of the same compound?
A: 5

Q: What about the “No. insects in shelter 2” value (bed bugs [1]; Exp. 75, shelter 2 H (2,000 μg) vs shelter 1 VPC (50 μg) + H) of the same compound?
A: 0

Q: And the “No. insects in bait chamber” value [2]?
A: 35

Q: And the “No. insects in control chamber” value [2]?
A: 10

Q: And the “No. insects not responding” value [2]?
A: 3

Q: What about the “Mean ± SE number insects in baited shelter” value (bed bugs [3]) of the same compound?
A: 6.06 ± 1.28

Q: What about the “Mean ± SE number insects in baited shelter” value (bed bugs [3]; listed as histamine) of the same compound?
A: 6.06

Q: And the “Mean (±SE) number insects in control shelter” value (bed bugs [3])?
A: 4.53 ± 1.8

Q: What about the “Mean (±SE) number insects in control shelter” value (bed bugs [3]; listed as histamine) of the same compound?
A: 4.53
